According to patent publication US20100056524A1, “Compound” (priority 2008, published 2010):

Each compound was assayed against T1, TBK1 (Homo sapiens, UniProt Q9UHD2) (assay: TBK1 protein kinase assay ([γ-33P]ATP, P81 filterplates)). Conditions: 50 μM ATP; read-out: Potency (TBK1 IC50 potency score).
T1 construct: All protein kinases were of human origin and encoded full length proteins, unless indicated otherwise; His6; made in house; host or cells: insect Sf21 cells
T1 sequence (Q9UHD2 1-729): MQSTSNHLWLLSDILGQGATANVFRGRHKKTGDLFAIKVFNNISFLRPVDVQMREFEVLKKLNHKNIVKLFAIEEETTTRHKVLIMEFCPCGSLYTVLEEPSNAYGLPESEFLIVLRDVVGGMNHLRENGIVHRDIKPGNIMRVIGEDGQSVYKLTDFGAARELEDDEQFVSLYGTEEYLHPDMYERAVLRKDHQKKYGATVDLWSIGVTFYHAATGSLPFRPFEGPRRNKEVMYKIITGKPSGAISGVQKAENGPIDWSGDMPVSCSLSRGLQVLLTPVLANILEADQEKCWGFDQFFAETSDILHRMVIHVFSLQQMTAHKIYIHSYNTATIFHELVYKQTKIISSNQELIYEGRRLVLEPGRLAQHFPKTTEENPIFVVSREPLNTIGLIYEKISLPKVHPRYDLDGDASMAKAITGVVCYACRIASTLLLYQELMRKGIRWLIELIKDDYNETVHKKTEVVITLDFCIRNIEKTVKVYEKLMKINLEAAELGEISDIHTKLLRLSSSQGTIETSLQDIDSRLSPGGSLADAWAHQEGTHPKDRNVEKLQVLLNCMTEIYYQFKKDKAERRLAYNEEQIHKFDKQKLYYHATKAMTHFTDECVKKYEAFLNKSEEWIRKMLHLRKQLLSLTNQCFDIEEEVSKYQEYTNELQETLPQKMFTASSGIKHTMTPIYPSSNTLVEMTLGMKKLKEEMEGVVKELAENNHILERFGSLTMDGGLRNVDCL
Format: biochemical
In short: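 Human TBK1 assayed for 30 min with peptide substrate (300 μM), 50 μM [γ-33P]ATP and 10 mM magnesium acetate in 50 mM Tris/HCl pH 7.5, 0.1 mM EGTA, 0.1% 2-mercaptoethanol. Stopped with orthophosphoric acid and counted on P81 filters. IC50 from 10 compound concentrations.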

Compound	IC50
CC(C)n1cc(Nc2ncc(C3CC3)c(NCCCNC(=O)C3CCC3)n2)cn1 [Example 161, Cyclobutanecarboxylic acid {3-[5-cyclopropyl-2-(1-isopropyl-1H-pyrazol-4-ylamino)-pyrimidin-4-ylamino]-propyl}-amide]	< 100 nM
O=C(C1CCC1)N1CC(CNc2nc(Nc3cccc(F)c3)ncc2C2CC2)C1 [Example 162, Cyclobutyl-(3-{[5-cyclopropyl-2-(3-fluoro-phenylamino)-pyrimidin-4-ylamino]-methyl}-azetidin-1-yl)-methanone]	100 to 1000 nM
O=C(NCCCNc1nc(Nc2ccc(S(=O)(=O)Nc3ncccn3)cc2)ncc1C1CC1)C1CCC1 [Example 163, Cyclobutanecarboxylic acid (3-{5-cyclopropyl-2-[4-(pyrimidin-2-ylsulfamoyl)-phenylamino]-pyrimidin-4-ylamino}-propyl)-amide]	< 100 nM
CN1Cc2cc(Nc3ncc(C4CC4)c(NCCCNC(=O)C4CCC4)n3)ccc2C1=O [Example 167, Cyclobutanecarboxylic acid {3-[5-cyclopropyl-2-(2-methyl-1-oxo-2,3-dihydro-1H-isoindol-5-ylamino)-pyrimidin-4-ylamino]-propyl}-amide]	< 100 nM
O=C(NCCCNc1nc(Nc2ccc3c(c2)CN(CCO)C3=O)ncc1C1CC1)C1CCC1 [Example 168, Cyclobutanecarboxylic acid (3-{5-cyclopropyl-2-[2-(2-hydroxy-ethyl)-1-oxo-2,3-dihydro-1H-isoindol-5-ylamino]-pyrimidin-4-ylamino}propyl)-amide]	< 100 nM
O=C1Cc2cc(Nc3ncc(C4CC4)c(NCCCNC(=O)C4CCC4)n3)ccc2N1 [Example 170, Cyclobutanecarboxylic acid {3-[5-cyclopropyl-2-(2-oxo-2,3-dihydro-1H-indol-5-ylamino)-pyrimidin-4-ylamino]-propyl}-amide]	< 100 nM
O=C(NCCCNc1nc(Nc2ccc3[nH]c(=O)[nH]c3c2)ncc1C1CC1)C1CCC1 [Example 178, Cyclobutanecarboxylic acid {3-[5-cyclopropyl-2-(2-oxo-2,3-dihydro-1H-benzimidazol-5-ylamino)-pyrimidin-4-ylamino]-propyl}-amide]	< 100 nM
Cn1c(=O)n(C)c2cc(Nc3ncc(C4CC4)c(NCCCNC(=O)C4CCC4)n3)ccc21 [Example 179, Cyclobutanecarboxylic acid {3-[5-cyclopropyl-2-(1,3-dimethyl-2-oxo-2,3-dihydro-1H-benzimidazol-5-ylamino)-pyrimidin-4-ylamino]-propyl}-amide]	< 100 nM
O=C(NCCCNc1nc(Nc2ccc(-c3cnco3)cc2)ncc1C1CC1)C1CCC1 [Example 181, Cyclobutanecarboxylic acid {3-[5-cyclopropyl-2-(4-oxazol-5-yl-phenylamino)-pyrimidin-4-ylamino]-propyl}-amide]	< 100 nM
O=C(NCCCNc1nc(Nc2ccc(Cn3cncn3)cc2)ncc1C1CC1)C1CCC1 [Example 182, Cyclobutanecarboxylic acid {3-[5-cyclopropyl-2-(4-1,2,4-triazol-1-ylmethyl-phenylamino)-pyrimidin-4-ylamino]-propyl}-amide]	< 100 nM
O=C(NCCCNc1nc(Nc2ccc(-c3cnco3)nc2)ncc1C1CC1)C1CCC1 [Example 185, Cyclobutanecarboxylic acid {3-[5-cyclopropyl-2-(6-oxazol-5-yl-pyridin-3-ylamino)-pyrimidin-4-ylamino]-propyl}-amide]	< 100 nM
O=C(NCCCNc1nc(Nc2ccc3nccn3c2)ncc1C1CC1)C1CCC1 [Example 186, Cyclobutanecarboxylic acid {3-[5-cyclopropyl-2-(imidazo[1,2-a]pyridin-6-ylamino)-pyrimidin-4-ylamino]-propyl}-amide]	< 100 nM
O=C(NCCCNc1nc(Nc2ccc(NCC3CCOCC3)nc2)ncc1C1CC1)C1CCC1 [Example 187]	< 100 nM
O=C(NCCCNc1nc(Nc2ccc(OC3CCN(C4CC4)CC3)nc2)ncc1C1CC1)C1CCC1 [Example 188, Cyclobutanecarboxylic acid (3-{5-cyclopropyl-2-[6-(1-cyclopropyl-piperidin-4-yloxy)-pyridin-3-ylamino]-pyrimidin-4-ylamino}-propyl)-amide]	< 100 nM
O=C(NCCCNc1nc(Nc2ccc3ncnn3c2)ncc1C1CC1)C1CCC1 [Example 189, Cyclobutanecarboxylic acid {3-[5-cyclopropyl-2-([1,2,4]triazolo[1,5-a]pyridin-6-ylamino)-pyrimidin-4-ylamino]-propyl}-amide]	< 100 nM

Now from value to compound:

IC50	Compound
< 100 nM	CNC(=O)c1ccc(Nc2ncc(C3CC3)c(NCCCNC(=O)C3CCC3)n2)cc1 [Example 164, 4-{4-[3-(Cyclobutanecarbonyl-amino)-propylamino]-5-cyclopropyl-pyrimidin-2-ylamino}-N-methyl-benzamide]
< 100 nM	CN1CCN(c2ccc(Nc3ncc(C4CC4)c(NCCCNC(=O)C4CCC4)n3)cc2)CC1 [Example 165, Cyclobutanecarboxylic acid (3-{5-cyclopropyl-2-[4-(4-methyl-piperazin-1-yl)-phenylamino]-pyrimidin-4-ylamino}-propyl)-amide]
< 100 nM	O=C(NCCCNc1nc(Nc2ccc(N3CCOCC3)cc2)ncc1C1CC1)C1CCC1 [Example 166, Cyclobutanecarboxylic acid {3-[5-cyclopropyl-2-(4-morpholin-4-yl-phenylamino)-pyrimidin-4-ylamino]-propyl}-amide]
< 100 nM	O=C(NCCCNc1nc(Nc2ccc(-n3cncn3)cc2)ncc1C1CC1)C1CCC1 [Example 169, Cyclobutanecarboxylic acid (3-{5-cyclopropyl-2-[4-(2H-1,2,4-triazol-1-yl)-phenylamino]-pyrimidin-4-ylamino}-propyl)-amide]
< 100 nM	CN1CCC(c2ccc(Nc3ncc(C4CC4)c(NCCCNC(=O)C4CCC4)n3)cc2)CC1 [Example 171, Cyclobutanecarboxylic acid (3-{5-cyclopropyl-2-[4-(1-methyl-piperidin-4-yl)-phenylamino]-pyrimidin-4-ylamino}-propyl)-amide]
< 100 nM	CN(C)CCc1ccc(Nc2ncc(C3CC3)c(NCCCNC(=O)C3CCC3)n2)cc1 [Example 172, Cyclobutanecarboxylic acid (3-{5-cyclopropyl-2-[4-(2-dimethylamino-ethyl)-phenylamino]-pyrimidin-4-ylamino}-propyl)-amide]
< 100 nM	CN(C)Cc1ccc(Nc2ncc(C3CC3)c(NCCCNC(=O)C3CCC3)n2)cc1 [Example 173, Cyclobutanecarboxylic acid (3-{5-cyclopropyl-2-[4-(2-dimethylamino-methyl)-phenylamino]-pyrimidin-4-ylamino}-propyl)-amide]
< 100 nM	O=C(NCCCNc1nc(Nc2ccc(C(=O)N3CCOCC3)cc2)ncc1C1CC1)C1CCC1 [Example 174, Cyclobutanecarboxylic acid (3-{5-cyclopropyl-2-[4-(morpholine-4-carbonyl)-phenylamino]-pyrimidin-4-ylamino}-propyl)-amide]
< 100 nM	CN1CCN(C(=O)c2ccc(Nc3ncc(C4CC4)c(NCCCNC(=O)C4CCC4)n3)cc2)CC1 [Example 175, Cyclobutanecarboxylic acid (3-{5-cyclopropyl-2-[4-(4-methyl-piperazine-1-carbonyl)-phenylamino]-pyrimidin-4-ylamino}-propyl)-amide]
< 100 nM	CN(C)CCN(C)C(=O)c1ccc(Nc2ncc(C3CC3)c(NCCCNC(=O)C3CCC3)n2)cc1 [Example 176, 4-{4-[3-(Cyclobutanecarbonyl-amino)-propylamino]-5-cyclopropyl-pyrimidin-2-ylamino}-N-(2-dimethylamino-ethyl)-N-methyl-benzamide]
< 100 nM	O=C(NCCCNc1nc(Nc2ccc(CCO)cc2)ncc1C1CC1)C1CCC1 [Example 177, Cyclobutanecarboxylic acid (3-{5-cyclopropyl-2-[4-(2-hydroxy-ethyl)-phenylamino]-pyrimidin-4-ylamino}-propyl)-amide]
< 100 nM	CN(C)C(=O)c1ccc(Nc2ncc(C3CC3)c(NCCCNC(=O)C3CCC3)n2)cc1 [Example 180, 4-{4-[3-(Cyclobutanecarbonyl-amino)-propylamino]-5-cyclopropyl-pyrimidin-2-ylamino}-N,N-dimethyl-benzamide]
< 100 nM	O=C(NCCCNc1nc(Nc2ccc(CCN3CCCC3)cc2)ncc1C1CC1)C1CCC1 [Example 183, Cyclobutanecarboxylic acid (3-{5-cyclopropyl-2-[4-(2-pyrrolidin-1-yl-ethyl)-phenylamino]-pyrimidin-4-ylamino}-propyl)-amide]
< 100 nM	O=C(NCCCNc1nc(Nc2ccc(N3CCCC3=O)cc2)ncc1C1CC1)C1CCC1 [Example 184, Cyclobutanecarboxylic acid (3-{5-cyclopropyl-2-[4-(2-oxo-pyrrolidin-1-yl)-phenylamino]-pyrimidin-4-ylamino}-propyl)-amide. xHCl]
